# Source: a melting point compilation (Tetko et al.; mined from patent text by program, amines drawn as free bases though some values may be those of a salt)
row,Compound,melting point
1,CCOCc1nc2c(N)nc3ccccc3c2n1CCCCS(=O)(=O)Nc1ccc(OC)cc1,229 to 230 °C
2,S=C=Nc1cc(-c2nc(-c3ccco3)no2)ccc1Cl,131 to 132 °C
3,CCOC(=O)c1cccc(Cc2ccc3ccccc3c2O)c1,86 to 87 °C
4,CC(=O)SC(CC(=O)c1ccc(C(C)C)cc1)C(=O)O (stereo not given),84 to 86 °C
5,O=C(O)[C@@H](CC(=O)N1CCOCC1)NS(=O)(=O)c1ccc(Oc2ccccc2)cc1,147 to 149 °C
6,CC12CC3(C)CC(c4ccc(O)cc4)(C1)CC(c1ccc(O)cc1)(C2)C3,222 to 224 °C
7,Cc1coc2c(C(=O)c3cccs3)cc(C(C)(C)C)c(O)c12,145 °C
8,CCc1cc(C(C)(C)C)c(OP2OCC(C)(C)CO2)c(C(C)(C)C)c1CC(=O)O,134 to 136 °C
9,COc1ccc2c(c1)CCC(C(=O)Cl)C2 (stereo not given),162 to 164 °C
10,CCN(Cc1csc(C2CCCC2)n1)C(=O)N[C@H](C(=O)N[C@@H](Cc1ccccc1)C[C@H](O)[C@H](Cc1ccccc1)NC(=O)OCc1cncs1)C(C)C,67 to 69 °C
11,Cc1cc(F)ccc1C(=O)CCCN1CCC2(CC1)C(=O)NCN2c1ccccc1,180 to 182 °C
12,CCCCN1Nn2c(c3ncnc-3c3cccnc32)N1CC(C)C,182 to 184 °C
13,COc1cc2c(cc1OC(C)=O)C1Cc3ccc(OC)c(OC(C)=O)c3CN1CC2 (stereo not given),212 to 214 °C
14,CCCCc1oc2ccccc2c1C(=O)O,106 to 110 °C
15,CC(C)CCC(=O)N[C@@H](Cc1ccccc1)C(=O)CSCc1ccco1,68 to 71 °C
16,COc1cccc(C=C2N=C(c3ccc([N+](=O)[O-])cc3)OC2=O)c1OC,203 to 208 °C
17,COc1ccc(C(=O)Nc2nc(-c3ccccc3)c(-c3ccc(=O)n(C(C)C)n3)s2)cc1,219 to 221 °C
18,Nc1cc(Br)nc(C(=O)O)c1Cl,182 to 183 °C
19,BrCc1nc2cc(OCc3ccccc3)ccc2s1,87 to 89 °C
20,O=Cc1sccc1Sc1ccccc1,99 to 100 °C

row,Compound,melting point
1,COC(=O)c1cscc1NC(=O)NCCCCBr,85 to 86 °C
2,O=c1c2cccc3ncc(c(=O)n1CCCNS(=O)(=O)C(F)(F)F)n32,124 to 125 °C
3,O=C1N(Cc2ncccc2C(F)(F)F)c2ccccc2C12COc1cc3c(cc12)OC(F)(F)O3 (stereo not given),200 to 201 °C
4,Cc1cc(C)cc(C(=O)OC2CCCCC2=O)c1 (stereo not given),65 to 66 °C
5,CCOC(=O)c1ccc2c(c1)CCC(Cc1cnc(N)s1)C2 (stereo not given),150 to 153 °C
6,CC1Cn2c(=O)[nH]c3cccc(c32)CN1Cc1ccccc1 (stereo not given),205 °C
7,CSc1ccc(-c2nc(O)c(C(=O)Nc3ccc(C)cc3)c(SC)n2)cc1,302 to 305 °C
8,COC1C(NC(=O)C(F)(F)F)CC(OC2CC(O)(CO)Cc3c(O)c4c(c(O)c32)C(=O)c2ccccc2C4=O)OC1C (stereo not given),262 to 263 °C
9,COc1ccccc1NC(=O)Nc1nc(Oc2ccc3ccccc3c2)nc(N(CCC(=O)O)Cc2ccccc2C(F)(F)F)n1,232 to 233 °C
10,Cc1nc2cccc3nc(SCCCCNS(=O)(=O)C(F)(F)F)c1n23,129 to 131 °C
11,COc1ccc(Nc2ccc(O)cc2)c(C(C)=O)c1,118 to 119 °C
12,Cc1[nH]cnc1Cn1nnnc1-c1cccc(Cl)c1Cl,151 to 153 °C
13,Nc1cc(CN2CCC2)cc(C(F)(F)F)c1,60 to 61 °C
14,COc1ccc2c(c1)NCCO2,59 to 61 °C
15,CC(=NOCc1ccc(OCc2nc(-c3ccccc3)oc2C)cc1)C(=O)O,147 to 148 °C
16,COc1ccc(Nc2ccccc2C=C(Br)Br)cc1OC,83 to 85 °C
17,CN1C(=O)[C@H](NC(=O)CCc2ccc(C(F)(F)F)cc2)N=C(c2ccccc2)c2ccccc21,175 to 176 °C
18,ClCCCn1c2ccccc2c2cc(-c3nc(C4CC4)no3)ncc21,165 to 169 °C
19,Nc1ccn(C2OC(CO)C(O)C2O)c(=O)c1F (stereo not given),234 to 236 °C
20,CC(C)=CC1CC(C)=C(C)C2C(=O)OC(=O)C12 (stereo not given),78 to 82 °C
